Reference: patent US20240002368A1 (QILU REGOR THERAPEUTICS INC., priority 2020, published 2024)
Read-outs that look alike come from different tables or passages of the source.

Test system: STING pathway
Test: IFN β reporter assay (HTRF, 2′3′-cGAMP-stimulated THP1 cells)
Format: cell-based, human
Details: Homo sapiens
Protocol: STING pathway deactivation by the compounds described herein was measured using THP1 cells. The THP1 Cells (obtained from ATCC, Cat #TIB-202) were maintained in RPMI-1640 (Gibco, Cat #22400105), 10% FBS, 1% Pen-Strep, 0.05 mM 2-mercaptoethanol. For STING activation, 2′3′-cGAMP (MW 718.38, obtained from Invivogen) was used and prepared in serum-free RPMI-1640 media. Growth media: RPMI-1640 (HEPES, glutamine), 10% FBS, 1% Pen-Strep, 0.05 mM 2-mercaptoethanol. Assay media: RPMI-1640 (HEPES, glutamine), 0.5% FBS. 2′3′-cGAMP: Dissolve 2′3′-cGAMP to 10 mM stock in H2O.
The cells were prepared and seeded at 100K, 90 μL/well with assay media in cell culture plate (Greiner 655180). The compounds were added in 96-well tissue culture plates by Tecan D300e for a final concentration of 0.00137-3 μM.
Lipo2000/3000 and 2′3′-cGAMP stock solutions were diluted respectively in serum-free RPMI-1640 media. The diluted 2′3′-cGAMP and Lipo (V/V=1:1) were mixed and stood for 15 min at room temperature. 10 μL 2,3-cGAMP/Lipofectamine (10×) was transferred to the 96-well assay plate with a final 2′3′-cGAMP concentration of 5 μM. The cell plates were centrifuged at 1000 rpm for 5 min after incubating at 37° C., 5% CO2 overnight.
All reagents (human IFN beta kit, Cisbio 62HIFNBPEG) were warmed to room temperature for at least 30 min before the assay. The instructions of the kit were followed to prepare the detection media. 14 μL of cell supernatants was transferred into their dedicated wells in 384-well plate. Then 2 μL of the activation reagent solution and 4 μL of the mixed antibody solution were added to all wells. The plate was sealed and incubated for 3 h at room temperature.
The HTRF signal was read in Envision (PerkinElmer). IFN β reporter activity was then measured. The calculated ratio is the signal at 665 nm/signal at 615 nm. IC50 values are calculated by using standard methods known in the art.

[1] = THP-1, THP1 cells, 5 μM 2′3′-cGAMP, IFN β secretion inhibition, class symbols, read-out: IFN β reporter activity IC50
[2] = THP-1, read-out: IFN β reporter activity IC50
[3] = THP-1, THP1 cells, 5 μM 2′3′-cGAMP, IFN β secretion inhibition, numeric values (comparators), read-out: IFN β reporter activity IC50

Compound | IC50 [1] | other results
Cn1cc(C(=O)Nc2c[nH]c3ccc(N4CCNCC4=O)cc23)c2ccc(C(F)(F)F)cc21 [Example 108, 1-methyl-N-[5-(2-oxopiperazin-1-yl)-1H-indol-3-yl]-6-(trifluoromethyl)indole-3-carboxamide] | > 1000 nM | –
Cc1[nH]c2ccc(F)cc2c1NC(=O)c1cn(C)c2cc(C(F)(F)F)ccc12 [Comparator C, reference compound] | – | IC50 [2]: 11000 nM
O=C(Nc1c[nH]c2c(F)cccc12)c1n[nH]c2cc(C(F)(F)F)ccc12 [Example 6] | 200 to 1000 nM | –
O=C(Nc1c[nH]c2ccc(F)cc12)c1cn([C@H]2CCOC2)c2cc(C(F)(F)F)ccc12 [Example 77] | – | IC50 [2]: 50 to 200 nM
Cn1cc(C(=O)Nc2c[nH]c3ccc(F)cc23)c2cc(F)c(CNC(C)(C)C)cc21 [Example 96] | > 1000 nM | –
O=C(Nc1c[nH]c2ccc(F)cc12)c1cn(C2CNC2)c2cc(C(F)(F)F)ccc12 [Example 113, 1-(azetidin-3-yl)-N-(5-fluoro-1H-indol-3-yl)-6-(trifluoromethyl)indole-3-carboxamide] | – | IC50 [2]: > 1000 nM
O=C(Nc1c[nH]c2ccc(F)cc12)c1cnn2cc(Cl)ccc12 [Example 23] | 200 to 1000 nM | –
Cn1cc(C(=O)Nc2c[nH]c3ccc(F)cc23)c2ccccc21 [Example 35] | – | IC50 [2]: 200 to 1000 nM
COC(=O)c1ccc2[nH]cc(NC(=O)c3cn(C)c4cc(C(F)(F)F)ccc34)c2c1 [Example 33] | 50 to 200 nM | –
O=C(Nc1c[nH]c2ccc(F)cc12)c1cc2ccc(C(F)(F)F)cc2[nH]1 [Example 78] | 50 to 200 nM | –
Cn1cc(C(=O)Nc2c[nH]c3ccc(F)cc23)c2cc(F)c(CNC3CCC(F)(F)CC3)cc21 [Example 100] | 50 to 200 nM | –
O=C(Nc1c[nH]c2ccc(F)cc12)c1n[nH]c2nc(OCC(F)(F)F)ccc12 [Example 69] | 50 to 200 nM | –
CCCCc1ccc2c(C(=O)Nc3c[nH]c4ccc(F)cc34)n[nH]c2c1 [Example 61] | 50 to 200 nM | –
O=C(Nc1c[nH]c2cc(F)c(F)cc12)c1n[nH]c2ncc(Br)cc12 [Example 68] | 50 to 200 nM | –
COc1ccc2[nH]cc(NC(=O)c3cn(C)c4cc(C(F)(F)F)ccc34)c2c1 [Example 51] | – | IC50 [2]: 50 to 200 nM
CN(C(=O)c1n[nH]c2cc(C(F)(F)F)ccc12)c1c[nH]c2ccc(F)cc12 [Comparator E, reference compound] | – | IC50 [3]: 12000 nM
O=C(Nc1c[nH]c2ccc(F)cc12)c1n[nH]c2cc(C3=CCOCC3)ccc12 [Example 29] | 50 to 200 nM | –
Cn1cc(NC(=O)c2cn(C)c3cc(C(F)(F)F)ccc23)c2cc(C#N)ccc21 [Comparator D, reference compound] | – | IC50 [3]: 10000 nM
CN(Cc1cc2c(cc1F)c(C(=O)Nc1c[nH]c3ccc(F)cc13)cn2C)CC(F)(F)F [Example 92, 5-fluoro-N-(5-fluoro-1H-indol-3-yl)-1-methyl-6-[[methyl(2,2,2-trifluoroethyl)amino]methyl]indole-3-carboxamide] | 50 to 200 nM | –
Cn1nc(C(=O)Nc2c[nH]c3ccccc23)c2cc(Br)ccc21 [Example 3] | – | IC50 [2]: 50 to 200 nM

Compound | IC50 [1] | other results
O=C(Nc1c[nH]c2ccc(F)cc12)c1cc2ccc(Br)cn2n1 [Example 57] | < 50 nM | –
Cn1cc(C(=O)Nc2c[nH]c3ccc(F)cc23)c2cc(F)c(CN3CCN(CC(F)(F)F)CC3)cc21 [Example 101] | 50 to 200 nM | –
COCCOc1ccc2c(C(=O)Nc3c[nH]c4ccc(F)cc34)cn(C3CC3)c2n1 [Example 46] | – | IC50 [2]: 50 to 200 nM
O=C(Nc1c[nH]c2ccc(Br)cc12)c1n[nH]c2cc(C(F)(F)F)ccc12 [Example 15] | < 50 nM | –
Cn1cc(C(=O)Nc2c[nH]c3ccc(P(C)(C)=O)cc23)c2ccc(C(F)(F)F)cc21 [Example 21] | > 1000 nM | –
N#Cc1ccc2[nH]cc(NC(=O)c3cn(C4CC4)c4nc(O[C@@H]5CCOC5)ccc34)c2c1 [Example 43] | – | IC50 [2]: 200 to 1000 nM
CN1CCC(c2cc3c(cc2Cl)c(C(=O)Nc2c[nH]c4ccc(C#N)cc24)cn3C)CC1 [Example 120, 5-chloro-N-(5-cyano-1H-indol-3-yl)-1-methyl-6-(1-methyl-4-piperidyl)indole-3-carboxamide] | > 1000 nM | –
O=C(Nc1c[nH]c2ccc(C(F)(F)F)cc12)c1n[nH]c2cc(C(F)(F)F)ccc12 [Example 10] | 50 to 200 nM | –
Cn1cc(C(=O)Nc2c[nH]c3ccc(C(=O)O)cc23)c2ccc(C(F)(F)F)cc21 [Example 87, 3-[[1-methyl-6-(trifluoromethyl)indole-3-carbonyl]amino]-1H-indole-5-carboxylic acid] | > 1000 nM | –
C[C@@H](NCc1cc2c(cc1F)c(C(=O)Nc1c[nH]c3ccc(F)cc13)cn2C)C(F)(F)F [Example 105] | < 50 nM | –
CS(=O)(=O)c1ccc2c(C(=O)Nc3c[nH]c4ccc(F)cc34)n[nH]c2c1 [Example 13] | > 1000 nM | –
O=C(Nc1c[nH]c2ccc(F)cc12)c1n[nH]c2cc(CNCC(F)(F)F)ccc12 [Example 93] | 50 to 200 nM | –
CN(C)Cc1cc2c(cc1F)c(C(=O)Nc1c[nH]c3ccc(F)cc13)cn2C [Example 94] | > 1000 nM | –
CC(C)n1nc(C(=O)Nc2c[nH]c3ccccc23)c2ccc(C(F)(F)F)cc21 [Example 5] | – | IC50 [2]: 200 to 1000 nM
O=C(Nc1c[nH]c2ccccc12)c1n[nH]c2cc(Br)ccc12 [Example 9] | < 50 nM | –
O=C(Nc1c[nH]c2cc(F)c(F)cc12)c1c[nH]c2cc(C(F)(F)F)ccc12 [Example 52] | < 50 nM | –
O=C(Nc1c[nH]c2cc(F)c(F)cc12)c1cc2ccc(C(F)(F)F)cc2[nH]1 [Example 79] | 50 to 200 nM | –
Cn1cc(C(=O)Nc2c[nH]c3ccc(C(N)=O)cc23)c2ccc(C(F)(F)F)cc21 [Example 34] | > 1000 nM | –
CN1CC=C(c2cc3c(cc2Cl)c(C(=O)Nc2c[nH]c4ccc(C#N)cc24)cn3C)CC1 [Example 119, 5-chloro-N-(5-cyano-1H-indol-3-yl)-1-methyl-6-(1-methyl-3,6-dihydro-2H-pyridin-4-yl)indole-3-carboxamide] | – | IC50 [2]: > 1000 nM
O=C(Nc1c[nH]c2ccc(F)cc12)c1cn(C2CC2)c2cc(C(F)(F)F)ccc12 [Example 67, 1-cyclopropyl-N-(5-fluoro-1H-indol-3-yl)-6-(trifluoromethyl)indole-3-carboxamide] | – | IC50 [2]: < 50 nM

Compound | IC50 [1] | other results
O=C(Nc1c[nH]c2cc(F)c(F)cc12)c1cc2ccccc2[nH]1 [Example 65] | < 50 nM | –
O=C(Nc1c[nH]c2ccc(F)cc12)c1cnn2cc(C(F)(F)F)ccc12 [Example 66] | 200 to 1000 nM | –
C[C@@H]1COCCN1c1cc2c(cc1F)c(C(=O)Nc1c[nH]c3ccc(F)cc13)cn2C [Example 50] | 200 to 1000 nM | –
O=C(Nc1c[nH]c2cc(F)c(F)cc12)c1n[nH]c2cc(C(F)(F)F)ccc12 [Example 17] | < 50 nM | –
Cn1cc(C(=O)Nc2c[nH]c3ccc(F)cc23)c2cc(F)c(CNCC(F)F)cc21 [Example 103] | 50 to 200 nM | –
O=C(Nc1c[nH]c2cccc(F)c12)c1n[nH]c2cc(C(F)(F)F)ccc12 [Example 26] | 50 to 200 nM | –
CN1CCC(c2ccc3c(C(=O)Nc4c[nH]c5ccc(F)cc45)cn(C)c3c2)CC1 [Example 118] | > 1000 nM | –
Cn1cc(C(=O)Nc2c[nH]c3ccc(F)cc23)c2ccc(OCC(F)(F)F)nc21 [Example 74] | 50 to 200 nM | –
CN(Cc1ccc2[nH]cc(NC(=O)c3cn(C)c4cc(C(F)(F)F)ccc34)c2c1)C(=O)OC(C)(C)C [Example 39] | 50 to 200 nM | –
O=C(Nc1c[nH]c2ccc(F)cc12)c1cn([C@@H]2CCOC2)c2cc(C(F)(F)F)ccc12 [Example 76] | – | IC50 [2]: 200 to 1000 nM
O=C(Nc1c[nH]c2cc(F)c(F)cc12)c1cnn2cc(Br)ccc12 [Example 59] | 200 to 1000 nM | –
O=C(Nc1c[nH]c2cc(F)c(F)cc12)c1n[nH]c2ccccc12 [Example 63] | 50 to 200 nM | –
O=C(Nc1c[nH]c2ccccc12)c1cc2ccc(C(F)(F)F)cc2[nH]1 [Example 56] | 50 to 200 nM | –
O=C(O)c1ccc2c(C(=O)Nc3c[nH]c4ccc(F)cc34)n[nH]c2c1 [Example 88, 3-[(5-fluoro-1H-indol-3-yl)carbamoyl]-1H-indazole-6-carboxylic acid] | > 1000 nM | –
Cn1nc(C(=O)Nc2c[nH]c3ccccc23)c2ccc(Br)cc21 [Example 4] | – | IC50 [2]: 50 to 200 nM
O=C(Nc1c[nH]c2ccc(F)cc12)c1n[nH]c2cc(OC(F)(F)F)ccc12 [Example 11] | 200 to 1000 nM | –
CC(NCC(F)(F)F)c1cc2c(cc1F)c(C(=O)Nc1c[nH]c3ccc(F)cc13)cn2C (racemic) [Example 107, rac-5-fluoro-N-(5-fluoro-1H-indol-3-yl)-1-methyl-6-[1-(2,2,2-trifluoroethylamino)ethyl]indole-3-carboxamide] | 50 to 200 nM | –
O=C(Nc1c[nH]c2cc(F)c(F)cc12)c1n[nH]c2nc(OCC(F)(F)F)ccc12 [Example 70] | 50 to 200 nM | –
